From US5672597A, “Acetamide derivative” (Kaken Pharmaceutical Co., Ltd., priority 1992, dated 1997)
Read-outs that look alike come from different tables or passages of the source.

Key:
[1] = system: ulcer induced by pylorus-ligation; assay: Test of ulcer induced by pylorus-ligation; type: in vivo, wistar male rat; settings: 14 h, read-out: Percentage of inhibition of ulcer formation
Protocol: (§1) With respect to anti-ulcer effect of the compounds having the general formula (I), there were carried out a test of ulcer induced by pylorus-ligation, which ulcer is induced mainly due to offensive factors; a test of ulcer induced by hydrochloric acid/ethanol, which ulcer is induced mainly due to defensive factors such as mucosal blood flow and mucus; and a test of ulcer induced by a stress of restraint plus water-immersion, which ulcer is induced due to both of offensive and defensive factors. Further, there were carried out a test of ulcer induced by acetic acid as a chronic ulcer model and a test of cure-prolonged ulcer induced by acetic acid. Also, there was examined an activity of increasing gastric mucosal blood flow, which activity brings about acceleration of regeneration of the gastric mucosa. As test compounds, hydrochloride salts were used.
The pylorus of a wistar male rat weighing 230 to 250 g, which had fasted for 48 hours, was ligated under ether-anesthesia, according to a usual method. After 14 hours, the animal was sacrificed by ether and the stomach was taken out therefrom.
The area of the ulcer generated on the fore-stomach was measured and the total area of the ulcer per rat was classified into the following six grades to give ulcer coefficients (Table 4).
Each of them was suspended in 0.5% methylcellulose solution and administered in the duodenum immediately after ligating the pylorus, in a dose of 100 mg/kg (body weight), respectively. To control group, only the medium for the medicament solution was administered in an amount of 0.25 ml/100 g (body weight).
The obtained results were subjected to the following formula to calculate a percentage of inhibition of ulcer formation. Six rats were used in each group for the test: [formula]

[2] = system: ulcer induced by hydrochloric acid/ethanol; assay: Test of ulcer induced by hydrochloric acid/ethanol; type: in vivo, wistar male rat; settings: 1 h, read-out: Percentage of inhibition of ulcer formation; for inhibition in vivo at 30 mg/kg: 30 mg/kg oral, hydrochloride salts
Protocol: as §1
To a wistar male rat weighing 220 to 240 g, which had fasted and thirsted for 24 hours, was orally administered 150 mM hydrochloric acid/70% ethanol solution in an amount of 5 ml/kg (body weight). After 1 hour, the animal was sacrificed by dislocating the cervical vertebrae and the stomach was taken out therefrom. The length of the ulcer generated on the glandular stomach was measured and the total thereof was regarded as the ulcer coefficient (mm).
To control group, only the medium for the medicament solution was orally administered in an amount of […] (body weight), 30 minutes before the administration of hydrochloric acid/ethanol.
(§2) The obtained results were subjected to the same formula as in the test of ulcer induced by pylorus-ligation, to calculate a percentage of inhibition of ulcer formation. Six rats were used in each group for the test.

[3] = system: ulcer induced by a stress of restraint plus water-immersion; assay: Test of ulcer induced by a stress of restraint plus water-immersion; type: in vivo, ddY male mouse; settings: 7 h, read-out: Percentage of inhibition of ulcer formation; for inhibition in vivo at 30 mg/kg: mouse, 30 mg/kg oral, 15 minutes before the load of the stress, hydrochloride salts
Protocol: as §1
A ddY male mouse weighing 20 to 25 g, which had fasted for 18 hours, was put into a stress cage, and was loaded with a stress by immersing it in a water tank at 23° C., to a level of a xiphoid. After 7 hours, the animal was sacrificed by dislocating the cervical vertebrae and the stomach was taken out therefrom. The length of the ulcer generated on the glandular stomach was measured and the total thereof was regarded as the ulcer coefficient (mm).
To control group, only the medium for the medicament solution was orally administered in an amount of 0.1 ml/10 g (body weight) 15 minutes before the load of the stress.
as §2

[4] = system: ulcer induced by acetic acid; assay: Test of ulcer induced by acetic acid; type: in vivo, wistar male rat; settings: rat, 15 mg/kg oral, twice a day from 2 days after generation of the ulcer
Protocol: as §1
Into the junction of the glandular stomach and the antrum, of a wistar male rat weighing 220 to 240 g, was injected subserosally […] of 20% acetic acid to generate an ulcer induced by acetic acid. […] Each of them was suspended in 0.5% methylcellulose solution, and administered orally in a dose of 15 mg/kg, twice a day (in the morning and in the evening) from 2 days after the generation of the ulcer for days, respectively. The animal was sacrificed by ether on the day after the last administration, and the stomach was taken out therefrom. The area of the ulcer was measured.
The obtained results were subjected to the following formula to calculate a percentage of improvement for curing ulcer. To control group, only the medium for the medicament solution was administered in an amount of 0.5 ml/100 g (body weight). Twenty rats were used in each group for the test. [formula]

[5] = system: cure-prolonged ulcer induced by acetic acid; assay: Test of cure-prolonged ulcer induced by acetic acid; type: in vivo, wistar male rat; settings: rat, 50 mg/kg oral, twice a day; cure prolonged with indomethacin 1 mg/kg s.c. for 13 days
Protocol: as §1
Into the junction of the glandular stomach and the antrum, of a wistar male rat weighing 220 to 240 g, was injected subserosally 30 μl of 20% acetic acid to generate an ulcer induced by acetic acid. From 2 days after the generation of the ulcer, indomethacin was injected subcutaneously in the regions of back of the rat in a dose of 1 mg/kg, once a day for 13 days to prolong the cure of the ulcer induced by acetic acid.
Each of them was suspended in 0.5% methylcellulose solution, and administered orally in a dose of 50 mg/kg, twice a day (in the morning and in the evening) from 13 days, respectively. The animal was sacrificed by ether on the day after the last administration, and the stomach was taken out therefrom. The area of the ulcer was measured. The obtained results were subjected to the following formula to calculate a percentage of improvement for curing ulcer. To control group, only the medium for the medicament solution was administered in an amount of 0.5 ml/100 g (body weight). Twenty rats were used in each group for the test. [formula]

[6] = rat, 100 mg/kg, in the duodenum immediately after ligating the pylorus, hydrochloride salts
[7] = rat, 30 minutes before hydrochloric acid/ethanol

Structure (SMILES) | inhibition in vivo at 100 mg/kg [1, 6] [%] | inhibition in vivo at 30 mg/kg [2, 7] [%] | inhibition in vivo at 30 mg/kg [3] [%] | other results
CCCCNC(=S)NCCSCC(=O)NC/C=C\COc1cc(CN2CCCCC2)ccn1 [Example 95] | 73 | 72 | 71 | 
NC(N)=Nc1nc(CSCCC(N)=NS(N)(=O)=O)cs1 [famotidine, reference compound] | 70 |  | 100 | inhibition in vivo at 100 mg/kg ([2]; rat, 100 mg/kg oral (cimetidine and famotidine), 30 minutes before hydrochloric acid/ethanol): 34%; Percentage of improvement for curing ulcer [4]: 7%; Percentage of improvement for curing ulcer [5]: 26%
CCOC(=O)NCCSCC(=O)NCCCOc1cccc(CN2CCCCC2)c1 [Example 13, N-[3-[3-(piperidinomethyl)phenoxy]propyl]-2-[2-(ethoxycarbonylamino)ethylthio]acetamide] | 68 | 69 | 89 | 
COc1ccccc1C(=O)NCCSCC(=O)NC/C=C\COc1cccc(CN2CCCCC2)c1 [Example 73] | 60 | 67 | 69 | 
COc1ccccc1C(=O)NCCSCC(=O)NC/C=C\COc1cc(CN2CCCCC2)ccn1 [Example 91] | 69 | 87 | 83 | 
CN/C(=N/CCSCc1nc[nH]c1C)NC#N [cimetidine, reference compound] |  |  |  | inhibition in vivo at 100 mg/kg ([1]; Rattus norvegicus): 27%; inhibition in vivo at 100 mg/kg ([2]; Rattus norvegicus, po): 7%; inhibition in vivo at 100 mg/kg ([3]; Mus musculus, po): 61%
O=C(CSCCNC(=O)c1ccccc1)NC/C=C\COc1cccc(CN2CCCCC2)c1 [Example 8, N-[4-[3-(piperidinomethyl)phenoxy]-cis-2-butenyl]-2-[2-(benzoylamino)ethylthio]acetamide] | 50 | 90 | 93 | 
COC(=O)NCC[S+]([O-])CC(=O)NC/C=C\COc1cccc(CN2CCCCC2)c1 (centres unmarked) [Example 79] | 57 | 78 | 67 | 
O=C(CSCCNC(=O)c1ccco1)NCCCOc1cccc(CN2CCCCC2)c1 [Example 5, N-[3-[3-(piperidinomethyl)phenoxy]propyl]-2-[2-(2-furoylamino)ethylthio]acetamide] | 57 | 97 | 93 | 
C=CCOC(=O)NCC[S+]([O-])CC(=O)NC/C=C\COc1cccc(CN2CCCCC2)c1 (centres unmarked) [Example 81] | 76 | 69 | 73 | 
COc1ccc(CN2CCCCC2)cc1OC/C=C\CNC(=O)CSCCNC(=O)c1ccoc1 [Example 4, N-[4-[(2-methoxy-5-piperidinomethyl)phenoxy]-cis-2-butenyl]-2-[2-(3-furoylamino)ethylthio]acetamide] | 73 | 97 | 75 | 
CNC(=S)NCCSCC(=O)NCCCOc1cccc(CN2CCCCC2)c1 [Example 16, N-[3-[3-(piperidinomethyl)phenoxy]propyl]-2-[2-(N'-methylthioureido)ethylthio]acetamide] | 70 | 62 | 74 | 
O=C(CSCCNC(=O)c1ccoc1)NC/C=C\COc1cccc(CN2CCCCC2)c1 [Example 10, N-[4-[3-(piperidinomethyl)phenoxy]-cis-2-butenyl]-2-[2-(3-furoylamino)ethylthio]acetamide] | 73 | 89 | 73 | 
CCOC(=O)NCCSCC(=O)NC/C=C\COc1cccc(CN2CCCCC2)c1 [Example 14, N-[4-[3-(piperidinomethyl)phenoxy]-cis-2-butenyl]-2-[2-(ethoxycarbonylamino)ethylthio]acetamide] | 63 | 77 | 91 | 
CCC(=NC#N)NCCSCC(=O)NC/C=C\COc1cccc(CN2CCCCC2)c1 [Example 11, N-[4-[3-(piperidinomethyl)phenoxy]-cis-2-butenyl]-2-[2-[(N-cyanopropioimidoyl)amino]ethylthio]-acetamide] | 55 | 51 | 70 | 
O=C(CSCCNC(=O)c1ccccn1)NCCCOc1cccc(CN2CCCCC2)c1 [Example 6] | 67 | 61 | 88 | 
O=C(CSCCNC(=O)c1ccccc1F)NCCCOc1cccc(CN2CCCCC2)c1 [Example 44] | 57 | 83 | 77 | 
COC(=O)NCCSCC(=O)NC/C=C\COc1cccc(CN2CCCCC2)c1 [Example 15, N-[4-[3-(piperidinomethyl)phenoxy]-cis-2-butenyl]-2-[2-(methoxycarbonylamino)ethylthio]acetamide] | 68 | 60 | 98 | 
COC(=O)NCCSCC(=O)NCCCOc1cccc(CN2CCCCC2)c1 [Example 12, N-[3-[3-(piperidinomethyl)phenoxy]propyl]-2-[2-(methoxycarbonylamino)ethylthio]acetamide] | 77 | 68 | 68 | 
COC(=O)NCC[S+]([O-])CC(=O)NCCCOc1cccc(CN2CCCCC2)c1 (centres unmarked) [Example 48] | 95 | 73 | 100 | 
